In series [1] the test system is T. cruzi-infected skeletal myoblasts (intracellular amastigotes). Description: Hit cross-validation in T. cruzi-infected mammalian cells (image-based assay). The format is cell-based, Trypanosoma cruzi. The protocol: Bovine embryo skeletal muscle cells or mouse C2C12 myoblasts (ATCC#CRL-1772) used in the cross-validation assay, were cultivated respectively in RPMI 1640 medium supplemented with 5% horse serum and Dulbecco's Modified Eagle's Medium H-21 containing 4.5 g/l glucose (DMEM H-21) (Cell Culture Facility, UCSF), supplemented with 5% fetal bovine serum (FBS) (Sigma Chemical Co., St. Louis, MO, USA), 25 mM HEPES, 2 mM L-glutamine, 100 U/ml penicillin, 100 µg/ml streptomycin. T. cruzi CAI-72 trypomastigotes were obtained from supernatant of infected cultures 4 to 7 days post-infection. Cultures were maintained at 37°C in an atmosphere of 5% CO2. To harvest parasites, the supernatant of infected cultures containing released trypomastigotes was collected and centrifuged at 600 rpm for 5 min to remove cell debris; the pellet was then discarded and the trypomastigotes remaining in the media were concentrated by spinning the culture tubes at 3300 rpm for 15 minutes. The parasite pellet was re-suspended in 2–5 ml of fresh media. Trypomastigote concentration was determined using a Neubauer hemocytometer.
(§1) Compound cross-validation in T. cruzi infected skeletal myoblasts (bovine embryo skeletal muscle or C2C12 lineage) was performed according to the protocol adapted from Engel and co-authors. Compounds stored as 10 mM stocks in DMSO were freshly diluted immediately prior to use. […] To prepare plates for the assay, skeletal myoblasts cultured in […] flasks were washed once with phosphate buffered saline (PBS) and then incubated with 0.25% trypsin in PBS for 1–3 minutes for detachment. The trypsin solution was removed and myoblasts were released from the flask bottom. Fresh medium was added and cell concentration was determined using a Neubauer hemocytometer. Myoblasts in 50 µl of culture medium were transferred to the clear-bottom wells of black 96-well plates (Greiner Bio-One, #655090) at a density of 1500 cells/well and infected with 50 µl trypomastigote culture at 7500 parasites/well (1∶5 ratio). The cells were allowed to adhere and spread for 24 h in the incubator before the media was removed and 100 µl of fresh medium containing 0, 0.04, 0.12, 0.37, 1.10, 3.30 or 10 µM of test compound was added to each well, followed by 72 h incubation at 37°C in an atmosphere of 5% CO2. Posaconazole was used as a positive control at the same concentrations as the test compounds. The cells were then fixed by adding 100 µl/well of 8% formaldehyde in PBS, resulting in a 4% working concentration of formaldehyde. To stain the nucleus of the host cell and the nucleus and kinetoplast of parasites, cell membranes were first permeabilized by washing once with 100 µl of 0.1% Triton X-100 in PBS, then treated for 1 h with 0.2 µg/ml of the fluorescent DNA dye, 4,6-diamidino-2-phenylindole (DAPI), followed by one wash with PBS. The fixed plates were kept at 4°C and protected from light until images were acquired.
(§2) Plates were allowed to equilibrate to room temperature and images were acquired by the IN Cell Analyzer 2000 (GE Healthcare) with a 20× objective, 5 fields per well, with 350/50 nm and 460/40 nm fluorescent excitation and emission filters. In the absence of drug cytotoxicity, at least 800 cells were imaged and counted per well. The images were processed and analyzed by IN Cell Analyzer Developer 1.6 software. The size parameters used to segment host and parasite organelles were 125 µm^2 for host nucleus, and 1–2 µm^2 for parasite nucleus/kinetoplast. Since DAPI also strongly stains host heterochromatin regions that display as shapes resembling parasites ( Figure 3 ), particles co-localized to host nuclei were excluded from quantification, while parasite aggregates near the host nucleus were counted as infected cells.

Series [2] has as its system host cell (skeletal myoblasts, bovine embryo skeletal muscle or C2C12). Description: Host cell toxicity in the cross-validation assay. The series is classed as cell-based. The settings on record: host cells in cross-validation assay, up to 10 µM. The protocol: as §1
as §2, with “cells. Numbers of host cells and intracellular amastigotes were determined based on host cell and parasite nucleus and parasite kinetoplast quantification, providing a measure of growth inhibition during the first 72 h of post-infection treatment compared to untreated controls.” for “cells.”
^aToxicity was assessed as the highest percentage of host cell growth inhibition caused by compound treatment. Scores are assigned as 1-<20%; 2-21-30%; 3- 31-40%; 4-41-50% and 5->50% growth inhibition.

The target in a further series is T1, T. cruzi CYP51 (Trypanosoma cruzi, UniProt Q7Z1V1).
T1 construct: had the first 21 residues upstream of K22 replaced with the fragment MAKKKKK; His6 (C); made in house
The series can be described thus: HTS spectral-mode binding screen, type II difference spectra scored 0-5.

Where [3] appears, read: Trypanosoma cruzi, Myoblast, 72 h, T. cruzi-infected myoblasts, 72 h treatment, read-out: EC50 against T. cruzi parasites in HTS assay used to rank order the hits.
Setting [4] is: T. cruzi-infected myoblasts, 72 h treatment, read-out: EC50 against T. cruzi parasites in HTS assay used to rank order the hits.
Setting [5] is: Trypanosoma cruzi, Myoblast, 72 h, read-out: EC50 against T. cruzi parasites in HTS assay used to rank order the hits.
Setting [6] is: spectral mode, four serial dilutions 2 µM to 12.5 µM, 2 µM CYP51.
[7] abbreviates: type II difference spectra scored 0-5, second highest rated hit compound cluster.

pEC50: −log10 of the molar value. Like-named read-outs stand apart in the source and are kept apart here.

T1 sequence (Q7Z1V1 15-481, looked up, natural form): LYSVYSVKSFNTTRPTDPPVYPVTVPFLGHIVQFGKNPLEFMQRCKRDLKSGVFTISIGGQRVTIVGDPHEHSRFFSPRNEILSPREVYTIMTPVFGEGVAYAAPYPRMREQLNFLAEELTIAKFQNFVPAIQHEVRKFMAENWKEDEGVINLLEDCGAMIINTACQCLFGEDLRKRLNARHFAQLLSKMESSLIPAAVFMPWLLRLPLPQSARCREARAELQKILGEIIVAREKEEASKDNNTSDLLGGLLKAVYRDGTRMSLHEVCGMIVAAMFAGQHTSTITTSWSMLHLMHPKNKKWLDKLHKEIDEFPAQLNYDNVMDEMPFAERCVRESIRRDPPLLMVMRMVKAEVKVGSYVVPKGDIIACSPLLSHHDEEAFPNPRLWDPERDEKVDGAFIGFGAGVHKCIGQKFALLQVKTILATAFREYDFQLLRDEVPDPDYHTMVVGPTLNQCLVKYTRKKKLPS

Turning to `Brc1ccc(OCCCn2ccnc2)cc1` [Compound 25], in series [1] (setting [3]), the pEC50 is 5.44. For the same compound, in series [2], the “Toxicity score (highest percentage of host cell growth inhibition)” value is 2 (2-21-30%).
Take `Cc1ccc(OCCCCCn2ccnc2)cc1C` [Compound 4]: the pEC50 in series [1] (setting [4]) and in series [1] (setting [3]) was 6.26 each time. The “Toxicity score (highest percentage of host cell growth inhibition)” value in series [2] is reported as 3 (3- 31-40%).
Take `COc1ccc(CNc2nc3ccccc3c3nc(-c4ccncc4)nn23)cc1` [Compound 15]: the negative-log EC50 (pEC50) in series [1] (setting [5]) was 5.71; in series [1] (Trypanosoma cruzi, Myoblast, 72 h, read-out: EC50 averaged from two independent cross-validation assays for individually repurchased hits) it was 5.71. Also, the “Toxicity score (highest percentage of host cell growth inhibition)” value in series [2] was 3 (3- 31-40%). The HTS binding score on T. cruzi CYP51 (setting [6]) is 5.
As to `O=C(c1ccc(Cl)cc1Cl)C(c1cccnc1)C(O)C(Cl)(Cl)Cl` (centres unmarked) [Compound 34], the pEC50 in series [1] (setting [5]) was 5.16. Besides, in series [2], the “Toxicity score (highest percentage of host cell growth inhibition)” value is listed as 2 (2-21-30%). At T. cruzi CYP51 (setting [6]), this compound came in with an HTS binding score of 5.
`Cc1ccc2nc(NC(=O)C3CCN(S(=O)(=O)c4cccnc4)CC3)sc2c1` [Compound 39]: the negative logarithm of the EC50 (pEC50) in series [1] (setting [5]) was 5.12. In series [2], the “Toxicity score (highest percentage of host cell growth inhibition)” value is reported as 1 (1-<20%).
The corresponding values for `CCn1c(C(=O)NCc2cccnc2)cc2oc3ccccc3c21` [Compound 16] are 5.66 and 4 (4-41-50%).
`Brc1ccc(-c2csc(-c3ccncc3)n2)cc1` [Compound 18]: the pEC50 in series [1] (setting [5]) was 5.62. Besides, the “Toxicity score (highest percentage of host cell growth inhibition)” value in series [2] is 1 (1-<20%). In addition, the HTS binding score on T. cruzi CYP51 (setting [6]) is given as 3.
For `CC1=Nc2ncnn2C(c2cccnc2)/C1=C(\O)OC1CCCCC1` (centres unmarked) [Compound 55], the pEC50 in series [1] (setting [5]) was 5.02. The “Toxicity score (highest percentage of host cell growth inhibition)” value in series [2] is 1 (1-<20%).
For the compound `COC(=O)c1ccc(-c2ccncc2)s1` [Compound 21], the negative logarithm of the EC50 (pEC50) in series [1] (setting [5]) was 5.56. The “Toxicity score (highest percentage of host cell growth inhibition)” value in series [2] is given as 2 (2-21-30%). The HTS binding score at T. cruzi CYP51 (setting [6]) turned out to be 4.
For `CCc1ccc(-c2cc3c(=O)n(CC(=O)NCc4cccnc4)nc(C)n3n2)cc1` [Compound 42] the same measures were 5.11, 3 (3- 31-40%) and 2.
Consider `Cc1ccc(/C(=C\n2ccnc2)c2ccccc2)cc1` [Compound 10], for which the pEC50 in series [1] (setting [4]) was 6.04; in series [1] (setting [3]) it was 6.02. For the same compound, the “Toxicity score (highest percentage of host cell growth inhibition)” value in series [2] is listed as 4 (4-41-50%).
Consider `CCOC(=O)C1=C(N)Oc2ccc3ccccc3c2C1c1cccnc1` (centres unmarked) [Compound 51], for which, in series [1] (setting [3]), the pEC50 is 5.07. Also, the “Toxicity score (highest percentage of host cell growth inhibition)” value in series [2] is given as 1 (1-<20%). The HTS binding score on T. cruzi CYP51 (setting [6]) and on T. cruzi CYP51 (setting [7]) was 2 in each case.
For `N#C/C(=C\C=C\c1ccccc1)C(=O)NCc1cccnc1` [Compound 49], in series [1] (setting [5]), the negative-log EC50 (pEC50) was 5.08. For the same compound, the “Toxicity score (highest percentage of host cell growth inhibition)” value in series [2] is 1 (1-<20%). Further, the HTS binding score at T. cruzi CYP51 (setting [6]) was determined as 3.
In the case of `OC(/C=C/c1cccc(C(F)(F)F)c1)(Cn1ccnc1)c1cccnc1` (centres unmarked) [Compound 23], the negative-log EC50 (pEC50) in series [1] (setting [5]) was 5.54. In series [2], the “Toxicity score (highest percentage of host cell growth inhibition)” value is 1 (1-<20%). On T. cruzi CYP51 (setting [6]), this compound had an HTS binding score of 1.
The corresponding values for `Cc1ccc(OCC(=O)ONC(=N)c2cccnc2)c(Br)c1` [Compound 54] are 5.02, 1 (1-<20%) and 3.
Take `OC(/C=C/c1ccccc1)(Cn1ccnc1)c1ccncc1` (centres unmarked) [Compound 12]: in series [1] (setting [5]), the pEC50 is 5.96. The “Toxicity score (highest percentage of host cell growth inhibition)” value in series [2] is given as 1 (1-<20%). The compound also had an HTS binding score on T. cruzi CYP51 (setting [6]) of 1.
With `Cc1ccc(OCCCn2ccnc2)c(C)c1` [Compound 45], the negative-log EC50 (pEC50) in series [1] (setting [3]) is 5.10. The “Toxicity score (highest percentage of host cell growth inhibition)” value in series [2] is reported as 3 (3- 31-40%). For the same compound, the HTS binding score on T. cruzi CYP51 (setting [6]) came out at 5.
`CC(C)/C=C1\CC/C(=C\c2ccncc2)C1=O` [Compound 35]: the negative logarithm of the EC50 (pEC50) in series [1] (setting [5]) is 5.15. Also, the “Toxicity score (highest percentage of host cell growth inhibition)” value in series [2] is 1 (1-<20%).
In the case of `O=S(=O)(NCc1csc(-c2cccnc2)n1)c1ccc(Br)cc1` [Compound 32], the pEC50 in series [1] (setting [5]) is 5.19. Moreover, the “Toxicity score (highest percentage of host cell growth inhibition)” value in series [2] was 2 (2-21-30%).
The corresponding values for `C/C(=N\OC(=O)c1c(-c2ccccc2Cl)noc1C)c1ccncc1` [Compound 33] are 5.17 and 3 (3- 31-40%).
Take `CC(C)=CCCC1=CCC2(COC(c3cccnc3)OC2)C(C)C1` (centres unmarked) [Compound 31]: the pEC50 in series [1] (setting [5]) is 5.19. In addition, in series [2], the “Toxicity score (highest percentage of host cell growth inhibition)” value is reported as 1 (1-<20%). At T. cruzi CYP51 (setting [6]), the HTS binding score amounted to 2.
Consider `Clc1ccc(Cl)c(SCCc2ccncc2)c1` [Compound 38], for which, in series [1] (setting [5]), the pEC50 was 5.13. For the same compound, the “Toxicity score (highest percentage of host cell growth inhibition)” value in series [2] was 2 (2-21-30%).
Take `CC1=C(C(=O)OC2CCCC2)C(c2ccncc2)C2=C(O)CC(C)(C)CC2=N1` (centres unmarked) [Compound 2]: the pEC50 in series [1] (setting [4]) and in series [1] (setting [3]) was 6.51 each time. The “Toxicity score (highest percentage of host cell growth inhibition)” value in series [2] is on record as 4 (4-41-50%). Also, the HTS binding score on T. cruzi CYP51 (setting [7]) was 4.
For the compound `O=C(Cc1coc2ccc3ccccc3c12)NCc1cccnc1` [Compound 44], in series [1] (setting [5]), the negative logarithm of the EC50 (pEC50) was 5.10. In series [2], the “Toxicity score (highest percentage of host cell growth inhibition)” value is recorded as 2 (2-21-30%).
For the compound `CC(C)(C)/C(=C\n1ccnc1)c1ccc(C(F)(F)F)cc1` [Compound 8], the negative-log EC50 (pEC50) in series [1] (setting [4]) and in series [1] (setting [3]) was 6.12 in each case. For the same compound, the “Toxicity score (highest percentage of host cell growth inhibition)” value in series [2] is on record as 3 (3- 31-40%).
As to `O=C(NCCc1ccncc1)Nc1ccc(Cl)c(Cl)c1` [Compound 20], the pEC50 in series [1] (setting [5]) is 5.59. Besides, the “Toxicity score (highest percentage of host cell growth inhibition)” value in series [2] is reported as 1 (1-<20%).
As to `O=C(NCc1cccnc1)/C(=C\c1cccc(Oc2ccccc2)c1)S(=O)(=O)c1ccccc1` [Compound 52], the pEC50 in series [1] (setting [5]) is 5.05. For the same compound, the “Toxicity score (highest percentage of host cell growth inhibition)” value in series [2] is 5 (5->50% growth inhibition).
The corresponding values for `O=C(/C(=C/c1ccc(F)cc1)n1cncn1)c1ccc(Cl)cc1Cl` [Compound 43] are 5.11 and 3 (3- 31-40%).
The corresponding values for `Oc1cccc(Nc2nc(-c3ccncc3)cs2)c1` [Compound 37] are 5.14 and 4 (4-41-50%).

(Values after publication PMC3409115, “Diverse Inhibitor Chemotypes Targeting Trypanosoma cruzi CYP51” (PLoS Neglected Tropical Diseases, 2012).)
